Experiments:
[1] = target: T1, Adrenergic receptor alpha-2 (Rattus norvegicus, UniProt P22086+P19328+P22909); assay: Inhibition of Sprague-Dawley rat alpha-2 adrenergic receptor
T1 sequence (P22086 whole entry): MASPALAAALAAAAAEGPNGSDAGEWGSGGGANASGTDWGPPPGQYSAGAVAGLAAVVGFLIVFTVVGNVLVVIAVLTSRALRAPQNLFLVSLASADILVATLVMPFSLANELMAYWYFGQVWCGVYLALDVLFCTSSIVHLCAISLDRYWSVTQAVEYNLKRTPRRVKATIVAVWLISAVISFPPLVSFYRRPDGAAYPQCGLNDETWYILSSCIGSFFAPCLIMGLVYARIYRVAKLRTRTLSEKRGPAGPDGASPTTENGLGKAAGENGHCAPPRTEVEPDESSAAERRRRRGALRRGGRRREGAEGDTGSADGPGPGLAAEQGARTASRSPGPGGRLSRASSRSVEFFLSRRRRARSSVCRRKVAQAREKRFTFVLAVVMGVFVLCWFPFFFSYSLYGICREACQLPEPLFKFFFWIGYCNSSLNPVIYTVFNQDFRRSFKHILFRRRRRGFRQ
T1 sequence (P19328 whole entry): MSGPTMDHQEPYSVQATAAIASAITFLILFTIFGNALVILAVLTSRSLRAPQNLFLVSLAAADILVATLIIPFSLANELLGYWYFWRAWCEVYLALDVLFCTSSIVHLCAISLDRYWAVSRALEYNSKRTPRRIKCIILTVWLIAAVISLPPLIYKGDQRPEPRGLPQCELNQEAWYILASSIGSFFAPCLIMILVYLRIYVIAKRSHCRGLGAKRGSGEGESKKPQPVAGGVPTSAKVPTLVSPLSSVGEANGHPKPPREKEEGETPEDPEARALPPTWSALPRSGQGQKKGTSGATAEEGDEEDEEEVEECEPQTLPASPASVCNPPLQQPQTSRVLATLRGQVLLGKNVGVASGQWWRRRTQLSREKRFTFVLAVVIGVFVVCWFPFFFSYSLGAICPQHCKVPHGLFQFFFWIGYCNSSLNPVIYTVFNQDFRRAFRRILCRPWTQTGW
T1 sequence (P22909 whole entry): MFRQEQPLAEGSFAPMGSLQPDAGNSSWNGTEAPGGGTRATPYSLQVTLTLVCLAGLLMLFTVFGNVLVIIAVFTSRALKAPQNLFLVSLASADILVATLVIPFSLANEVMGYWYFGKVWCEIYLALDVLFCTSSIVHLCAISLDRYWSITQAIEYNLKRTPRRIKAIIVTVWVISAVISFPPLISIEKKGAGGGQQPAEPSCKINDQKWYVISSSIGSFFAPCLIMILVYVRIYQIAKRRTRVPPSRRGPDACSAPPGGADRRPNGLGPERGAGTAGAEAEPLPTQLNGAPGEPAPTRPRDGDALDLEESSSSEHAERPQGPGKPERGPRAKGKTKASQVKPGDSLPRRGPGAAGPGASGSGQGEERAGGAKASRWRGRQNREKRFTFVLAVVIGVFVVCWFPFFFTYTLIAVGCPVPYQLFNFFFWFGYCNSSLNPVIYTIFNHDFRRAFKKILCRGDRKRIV

Nischarin = Nischarin (Rattus norvegicus, UniProt Q4G017); assay: Inhibition of Sprague-Dawley rat imidazoline I1 receptor
Sequence of Nischarin (Q4G017 whole entry): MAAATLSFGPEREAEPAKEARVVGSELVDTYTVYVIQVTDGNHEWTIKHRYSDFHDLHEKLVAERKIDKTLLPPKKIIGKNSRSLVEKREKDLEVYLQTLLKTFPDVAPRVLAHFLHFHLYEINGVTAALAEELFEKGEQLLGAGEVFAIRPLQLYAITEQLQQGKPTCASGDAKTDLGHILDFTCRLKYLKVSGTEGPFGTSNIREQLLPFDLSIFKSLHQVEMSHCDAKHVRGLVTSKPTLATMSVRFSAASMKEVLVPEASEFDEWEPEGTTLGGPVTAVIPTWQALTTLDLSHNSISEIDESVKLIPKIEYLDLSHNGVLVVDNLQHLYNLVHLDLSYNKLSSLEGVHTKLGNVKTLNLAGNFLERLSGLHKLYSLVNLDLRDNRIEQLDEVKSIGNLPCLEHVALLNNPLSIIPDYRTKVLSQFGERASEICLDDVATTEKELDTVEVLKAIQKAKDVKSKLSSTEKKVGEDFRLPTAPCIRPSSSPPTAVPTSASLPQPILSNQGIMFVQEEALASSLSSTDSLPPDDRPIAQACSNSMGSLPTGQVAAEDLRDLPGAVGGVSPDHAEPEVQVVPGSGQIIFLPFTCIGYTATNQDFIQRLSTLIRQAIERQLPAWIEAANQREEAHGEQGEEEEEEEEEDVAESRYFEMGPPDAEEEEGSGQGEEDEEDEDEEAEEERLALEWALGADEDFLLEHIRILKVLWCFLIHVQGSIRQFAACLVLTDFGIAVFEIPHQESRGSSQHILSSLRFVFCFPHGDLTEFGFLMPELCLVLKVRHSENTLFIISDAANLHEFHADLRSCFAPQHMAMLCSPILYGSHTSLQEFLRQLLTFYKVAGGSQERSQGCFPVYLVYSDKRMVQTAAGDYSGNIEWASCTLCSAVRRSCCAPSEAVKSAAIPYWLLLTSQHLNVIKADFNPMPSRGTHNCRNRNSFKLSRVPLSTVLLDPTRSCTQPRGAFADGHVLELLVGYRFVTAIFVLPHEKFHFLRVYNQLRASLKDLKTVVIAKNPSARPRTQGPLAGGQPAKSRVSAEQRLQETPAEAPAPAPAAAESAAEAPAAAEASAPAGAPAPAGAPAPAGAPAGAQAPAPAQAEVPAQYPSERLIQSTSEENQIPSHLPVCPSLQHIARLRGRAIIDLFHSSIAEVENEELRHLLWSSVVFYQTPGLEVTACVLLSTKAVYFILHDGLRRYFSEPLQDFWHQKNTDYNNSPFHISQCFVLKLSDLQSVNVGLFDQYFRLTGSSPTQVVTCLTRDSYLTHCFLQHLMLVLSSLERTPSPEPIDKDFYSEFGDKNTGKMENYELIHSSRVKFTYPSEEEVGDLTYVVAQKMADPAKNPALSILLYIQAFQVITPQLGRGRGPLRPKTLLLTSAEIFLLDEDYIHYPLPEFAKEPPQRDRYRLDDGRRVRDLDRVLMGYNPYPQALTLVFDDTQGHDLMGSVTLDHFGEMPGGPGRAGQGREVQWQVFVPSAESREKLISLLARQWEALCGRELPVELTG

[2] = Inhibition of Sprague-Dawley rat imidazoline I2 receptor
[3] = Inhibition of Wistar rat imidazoline I2 receptor

| Compound | Ki [1] [µM] | IC50 (Nischarin) [µM] | Ki [2] [µM] | Ki [3] [µM] |
| --- | --- | --- | --- | --- |
| Br.NCC[C@H]1CNC(Nc2cccnc2)=N1 | 19.66 | > 1000 | > 1000 | – |
| Br.NCC[C@H]1CNC(NCc2ccccc2)=N1 | 5.539 | 101 | 7.5 | – |
| Br.NCC[C@H]1CNC(Nc2ccc(Cl)cc2Cl)=N1 | 0.854 | 1.48 | 1.76 | – |
| Br.Cc1cccc(NC2=N[C@H](CCN)CN2)n1 | 4.907 | 8.51 | 39.6 | – |
| Br.NCC[C@H]1CNC(Nc2ccccc2Br)=N1 | 1.553 | 3.7 | 18.8 | – |
| Br.NCC[C@H]1CNC(Nc2c(F)cccc2F)=N1 | 13.06 | 93.1 | 21.8 | – |
| Br.NCC[C@H]1CNC(Nc2ccc(Br)cc2)=N1 | 25.8 | 59.4 | 81.2 | – |
| Br.COc1ccc(NC2=N[C@@H](CCN)CN2)cc1 | 9.376 | 79.8 | 24.9 | – |
| Br.NCC[C@H]1CNC(Nc2cccc(Cl)c2)=N1 | 7.018 | 33.9 | 20.3 | – |
| Br.Cc1cccc(NC2=N[C@@H](CCN)CN2)n1 | 0.445 | 7.78 | 15.7 | – |
| Br.NCC[C@@H]1CNC(Nc2ccc(Cl)cc2Cl)=N1 | 16.92 | 6.33 | 92.5 | – |
| Br.NCC[C@H]1CNC(Nc2cccc(C(F)(F)F)c2)=N1 | 3.007 | 1.31 | 12.7 | – |
| Br.NCC[C@@H]1CNC(Nc2cccc(C(F)(F)F)c2)=N1 | 26.69 | 1.25 | 47.7 | – |
| Br.NCC[C@H]1CNC(Nc2c(Cl)cccc2Cl)=N1 | 1.899 | 7.75 | 2.43 | – |
| Br.NCC[C@@H]1CNC(Nc2c(Cl)cccc2Cl)=N1 | 4.315 | 2.72 | 9.56 | – |
| Br.NCC[C@H]1CNC(Cc2ccccc2)=N1 | 23.32 | 278 | 59.4 | – |
| Br.NCC[C@H]1CNC(Cc2cccc3ccccc23)=N1 | 0.964 | > 100 | 1 | – |
| Br.NCC[C@@H]1CNC(Cc2cccc3ccccc23)=N1 | 83.77 | 583 | 46.3 | – |
| Br.CCC1(C2=N[C@@H](CCN)CN2)Cc2ccccc2O1 (stereo partly drawn) | 20.35 | 1.01 | 2.55 | – |
| Br.CCC1(C2=N[C@H](CCN)CN2)Cc2ccccc2O1 (stereo partly drawn) | 0.869 | 32.5 | 18.9 | – |
| Br.NCC[C@H]1CNC(C2COc3ccccc3O2)=N1 (stereo partly drawn) | 24.02 | 5.11 | 8.12 | – |
| Br.NCC[C@@H]1CNC(C2COc3ccccc3O2)=N1 (stereo partly drawn) | 5.412 | 2.65 | 9.61 | – |
| Br.NCC[C@H]1CNC(CN(Cc2ccccc2)c2ccccc2)=N1 | 481.8 | 11.6 | 19.1 | – |
| Br.NCC[C@H]1CNC(c2ccccc2)=N1 | 43.07 | 72.9 | 3.56 | – |
| Br.NCC[C@H]1CNC(c2ccccc2F)=N1 | 178.6 | 117 | 27.6 | – |
| Br.NCC[C@H]1CNC(/C=C/c2ccccc2)=N1 | 3.896 | 17.2 | 11.2 | – |
| Cl.Cl.NCC[C@H]1CNC(NC(C2CC2)C2CC2)=N1 | 5.727 | > 100 | 28 | – |
| NCCCCN=C(N)N [AGMATINE] | – | – | – | 417 |
| Clc1cccc(Cl)c1NC1=NCCN1 [CLONIDINE] | – | – | 0.364 | – |

From ChEMBL document CHEMBL1641382, “New imidazoline/α(2)-adrenoceptors affecting compounds-4(5)-(2-aminoethyl)imidazoline (dihydrohistamine) derivatives. Synthesis and receptor affinity studies” (Bioorg Med Chem, 2011)
